Series [1] can be described thus: Toxicity of DB-DBA, CellTiter 96 AQueous One Solution cell viability assay, 72 h. In kind it is cell-based, human. Conditions: human, MDA-MB231 breast cancer cells, 72 h. On the procedure: (§1) Toxicity of DB-DBA (2-(3,4-dihydroxybenzoyloxy)-4,6-dihydroxybenzoic acid) was assessed in 96-well plates (Thermofisher, Walthman, Mass.) on 1×10^3 MDA-MB231 human breast cancer cells/well. DB-DBA was diluted to concentrations from 500 to 20 ug/ml. The plate was incubated at 37° C. for 72 h. Cell viability was measured in a CellTiter 96® AQueous One Solution Cell Proliferation Assay (Promega, Madison, Wis.), according to the manufacturer's protocol.

For series [2], the system named is MDA-MB231 human breast cancer cells. Described as above. The format is cell-based. Conditions: Homo sapiens, MDA-MB-231; MDA-MB231, 72 h, 37° C. Here is the method: as §1
For series [3], the system named is human lymphoblastoid TK6 cells. As to conditions: cited from earlier work.
Series [4] has as its system human lymphoblastoid TK6 cells. As to conditions: cited from earlier work. The source holds these as a separate data set.
Series [5] has as its system human lymphoblastoid cell line K562. Conditions: cited from earlier work.
For series [6], the system named is retinal pigmented epithelial cells (ARPE-19). As to conditions: cited from earlier work.
For series [7] the following is noted: humans, cited from earlier work.

Converted amounts (≈) assume the structure as drawn.

On to `O=C(Oc1cc(O)cc(O)c1C(=O)O)c1ccc(O)c(O)c1` [DB-DBA, 2-(3,4-dihydroxybenzoyloxy)-4,6-dihydroxybenzoic acid], for which, in series [1] (DB-DBA 20 microgram/ml), the viability at 72 h, 20 microgram/ml came to 95%. For the same molecule, in series [1] (DB-DBA 50 microgram/ml), the viability at 72 h, 50 microgram/ml is 62%. Besides, the viability at 72 h, 100 microgram/ml in series [1] (DB-DBA 100 microgram/ml) is 41%. In addition, the viability at 72 h, 250 microgram/ml in series [1] (DB-DBA 250 microgram/ml) worked out at 19%. Besides, the viability at 72 h, 500 microgram/ml in series [1] (DB-DBA 500 microgram/ml) came out at 10%. Besides, the IC50 in series [2] was 75 µg/mL (≈ 245 µM).

Regarding `O=C(O)c1cc(O)c(O)c(OC(=O)c2cc(O)c(O)c(O)c2)c1` [DGA, Digallic acid], the “concentrations causing DNA fragmentation, caspase-3/8 activation and PARP cleavage” value in series [3] is 2.5-10 microgram/ml. In addition, the “IC50 by MTT assay” value in series [4] was 8.5 microgram/ml. Moreover, in series [5], the “concentrations causing DNA fragmentation” value is reported as 200-800 microgram/ml. For the same molecule, the “IC50 (cytotoxicity)” value in series [6] is reported as 47 microgram/ml.

For `O=c1c(O)c(-c2ccc(O)c(O)c2)oc2cc(O)cc(O)c12` [quercetin, 2-(3,4-dihydroxyphenyl)-3,5,7-trihydroxy-4H-chromen-4-one], the elimination half-life in series [7] (after ingestion in foods or supplements) is 1 to 2 h. Also, in series [7], the bioavailability is on record as 0-50%.

As usually defined, the viability is a read-out of living cells in per cent, often relative to untreated cells. The low end stands for more harm to the cells, the high end for less harm to the cells. In general, IC50 refers to the concentration needed to halve the response being measured. A higher IC50 goes with a need for much substance.

The record behind these values is patent US20200197355A1, “METHODS, COMPOSITIONS AND CONTAINERS FOR REDUCING SOLID FORM QUERCETIN DEGRADATION AND 2-(3,4-DIHYDROXYBENZOYLOXY)-4,6-DIHYDROXYBENZOIC ACID TOXIC BYPRODUCTS THEREOF” (PUBLIC JOINT STOCK COMPANY "SCIENTIFICINDUSTRIALCENTRE …, priority 2018, published 2020).
